Measurements published in ChEMBL document CHEMBL5634151, “Anti-adipogenic action of a novel oxazole derivative through activation of AMPK pathway” (Eur J Med Chem, 2023).
Active and inactive are the calls of the source. The rule behind the calls is not given here.

How the values were obtained:
Syrian golden hamster [1] = assay: Anti-obesity activity in high-fat diet induced Syrian golden hamster model assessed as reduction in adipose hypertrophy at 50 mg/kg, po administered for 7 days by H and E staining based inverted microscopic analysis; assay type: functional, organism-based; conditions: Mesocricetus auratus, time 7.0 day
3T3-L1 [2] = assay: Inhibition of MDI-cocktail induced adipogenic differentiation in mouse 3T3-L1 pre-adipocyte cells assessed as reduction in PPARgamma gene expression at 5 uM by qRT-PCR analysis; assay type: functional, cell-based
3T3-L1 [3] = assay: Induction of maximum respiration during early phase in MDI-cocktail differentiated mouse 3T3-L1 pre-adipocyte cells 5 uM incubated for 72 hrs by Seahorse XFp flux analyzer; assay type: functional, cell-based
3T3-L1 [4] = assay: Activation of AMPK in mouse 3T3-L1 mature adipocytes assessed as increase in AMPK phosphorylation at Thr172 residue incubated for 24 hrs by Western blot analysis; assay type: cell-based; conditions: filed as activator, dose 1-5 µM
3T3-L1 [5] = assay: Induction of cell cycle arrest in MDI-cocktail differentiated mouse 3T3-L1 pre-adipocyte cells assessed as reduction in cyclin D1 protein expression at 5 uM measured after 16 to 24 hrs by immunoblotting analysis; assay type: functional, cell-based; conditions: time 16-24 hrs
Syrian golden hamster [6] = assay: Anti-obesity activity in high-fat diet induced Syrian golden hamster model assessed as reduction in fat mass at 50 mg/kg, po administered for 7 days by 1H NMR spectroscopy-based Echo MRI system; assay type: functional, organism-based; conditions: Mesocricetus auratus, time 7.0 day
3T3-L1 [7] = assay: Induction of mitochondrial respiration in MDI-cocktail differentiated mouse 3T3-L1 pre-adipocyte cells assessed as increase in oxygen consumption rate at 5 uM incubated for 72 hrs in presence of oligomycin by Seahorse XFp flux analyzer; assay type: functional, cell-based
3T3-L1 [8] = assay: Anti-adipogenic activity in MDI-cocktail differentiated mouse 3T3-L1 pre-adipocyte cells assessed as reduction in PPARgamma protein expression at 5 uM measured for 3 to 7 days by immunoblotting analysis; assay type: functional, cell-based; conditions: time 3-7 day
C3H 10T1/2 [9] = assay: Anti-adipogenic activity in MDI-cocktail differentiated mouse C3H 10T1/2 cells assessed as reduction in adipogenic differentiation at 5 uM measured after 0 to 7 days by Oil Red O staining based microscopic analysis; assay type: functional, cell-based; conditions: time 0-7 day
3T3-L1 [10] = assay: Inhibition of MDI-cocktail induced adipogenic differentiation in mouse 3T3-L1 pre-adipocyte cells assessed as reduction in FABP4 protein expression at 0.5 to 5 uM by Western blot analysis; assay type: functional, cell-based; conditions: dose 0.5-5 µM
3T3-L1 [11] = assay: Induction of cell cycle arrest in MDI-cocktail differentiated mouse 3T3-L1 pre-adipocyte cells assessed as accumulation of cells at G1 phase at 3 to 5 uM incubated for 16 hrs by propidium iodide staining based flow cytometry analysis; assay type: functional; conditions: dose 3-5 µM
3T3-L1 [12] = assay: Inhibition of MDI-cocktail induced adipogenic differentiation in mouse 3T3-L1 pre-adipocyte cells assessed as reduction in FABP4 gene expression at 5 uM by qRT-PCR analysis; assay type: functional, cell-based
3T3-L1 [13] = assay: Inhibition of MDI-cocktail induced mTOR phosphorylation at Ser2448 residue in mouse 3T3-L1 pre-adipocyte cells at 5 uM by immunoblotting analysis; assay type: cell-based
3T3-L1 [14] = assay: Upregulation of CIV-MTCO1 protein expression in mouse 3T3-L1 mature adipocytes at 1 to 5 uM incubated for 24 hrs by Western blot analysis; assay type: functional, cell-based; conditions: dose 1-5 µM
3T3-L1 [15] = assay: Inhibition of MDI-cocktail induced adipogenic differentiation in mouse 3T3-L1 pre-adipocyte cells assessed as reduction in lipid bound stain absorbance at 0.5 to 25 uM by Oil Red O staining based microscopic analysis; assay type: functional, cell-based; conditions: dose 0.5-25 µM
3T3-L1 [16] = assay: Cytotoxicity against mouse 3T3-L1 pre-adipocyte cells assessed as reduction in cell viability at 20 uM incubated for 48 hrs by MTT assay; assay type: toxicity, cell-based; conditions: 3t3-l1, 48 h
3T3-L1 [17] = assay: Cytotoxicity against mouse 3T3-L1 pre-adipocyte cells assessed as reduction in cell viability 100 uM incubated for 48 hrs by MTT assay; assay type: toxicity, cell-based; conditions: 3t3-l1, 48 h
3T3-L1 [18] = assay: Induction of cell cycle arrest in MDI-cocktail differentiated mouse 3T3-L1 pre-adipocyte cells assessed as accumulation of cells at S phase at 3 to 5 uM incubated for 24 hrs by propidium iodide staining based flow cytometry analysis; assay type: functional; conditions: dose 3-5 µM
Syrian golden hamster [19] = assay: Anti-obesity activity in high-fat diet induced Syrian golden hamster model assessed as reduction in lipid accumulation in liver cells at 50 mg/kg, po administered for 7 days by H and E staining based inverted microscopic analysis; assay type: functional, organism-based; conditions: Mesocricetus auratus, time 7.0 day
3T3-L1 [20] = assay: Activation of AMPK pathway in MDI-cocktail differentiated mouse 3T3-L1 pre-adipocyte cells assessed as reversal of 6-(4-(2-(piperidin-1-yl)ethoxy)phenyl)-3-(pyridin-4yl)pyrazolo[1,5-a]pyrimidine induced AMPK inhibition at 5 uM incubated for 72 hrs by immunoblotting analysis; assay type: cell-based; conditions: filed as activator
3T3-L1 [21] = assay: Upregulation of CII-SDHB protein expression in mouse 3T3-L1 mature adipocytes at 1 to 5 uM incubated for 24 hrs by Western blot analysis; assay type: functional, cell-based; conditions: dose 1-5 µM
3T3-L1 [22] = assay: Induction of spare respiratory capacity during early phase in MDI-cocktail differentiated mouse 3T3-L1 pre-adipocyte cells 5 uM incubated for 72 hrs by Seahorse XFp flux analyzer; assay type: functional, cell-based
3T3-L1 [23] = assay: Anti-adipogenic activity in MDI-cocktail differentiated mouse 3T3-L1 pre-adipocyte cells assessed as inhibition of adipogenesis at 0.1 uM by Oil Red O staining based microscopic analysis; assay type: functional, cell-based
Syrian golden hamster [24] = assay: Anti-dyslipidaemic activity in high-fat diet induced Syrian golden hamster model assessed as assessed as reduction in serum total cholesterol level at 25 to 50 mg/kg, po administered for 7 days; assay type: functional, organism-based; conditions: Mesocricetus auratus, dose 25-50 mg/kg, time 7.0 day
3T3-L1 [25] = assay: Upregulation of CIII-UQCRC2 protein expression in mouse 3T3-L1 mature adipocytes at 1 to 5 uM incubated for 24 hrs by Western blot analysis; assay type: functional, cell-based; conditions: dose 1-5 µM
3T3-L1 [26] = assay: Upregulation of CV-ATP5A protein expression in mouse 3T3-L1 mature adipocytes at 1 to 5 uM incubated for 24 hrs by Western blot analysis; assay type: functional, cell-based; conditions: dose 1-5 µM
Syrian golden hamster [27] = assay: Anti-dyslipidaemic activity in high-fat diet induced Syrian golden hamster model assessed as assessed as reduction in serum triglyceride level at 25 to 50 mg/kg, po administered for 7 days; assay type: functional, organism-based; conditions: Mesocricetus auratus, dose 25-50 mg/kg, time 7.0 day
3T3-L1 [28] = assay: Induction of mitochondrial respiration in MDI-cocktail differentiated mouse 3T3-L1 pre-adipocyte cells assessed as increase in oxygen consumption rate at 5 uM incubated for 72 hrs by Seahorse XFp flux analyzer; assay type: functional, cell-based
C3H 10T1/2 [29] = assay: Anti-adipogenic activity in MDI-cocktail differentiated mouse C3H 10T1/2 cells assessed as reduction in adipogenic differentiation at 5 uM measured after 3 to 5 days by Oil Red O staining based microscopic analysis; assay type: functional, cell-based; conditions: time 3-5 day
3T3-L1 [30] = assay: Anti-adipogenic activity in MDI-cocktail differentiated mouse 3T3-L1 pre-adipocyte cells assessed as reduction in adipogenic differentiation at 5 uM measured after 0 to 7 days by Oil Red O staining based microscopic analysis; assay type: functional, cell-based; conditions: time 0-7 day
Syrian golden hamster [31] = assay: Anti-dyslipidaemic activity in high-fat diet induced Syrian golden hamster model assessed as assessed as increase in serum HDL level at 25 to 50 mg/kg, po administered for 7 days; assay type: functional, organism-based; conditions: Mesocricetus auratus, dose 25-50 mg/kg, time 7.0 day
3T3-L1 [32] = assay: Inhibition of MDI-cocktail induced adipogenic differentiation in mouse 3T3-L1 pre-adipocyte cells assessed as inhibition of lipid accumulation by Oil Red O staining based microscopic analysis; assay type: functional, cell-based; conditions: dose 0.5-20 µM

Cc1ccc(-c2cnc(-c3ccc[n+](Cc4cccc(C)c4)c3)o2)cc1.[Br-]
Activity (Syrian golden hamster [1]): Active | inhibition (3T3-L1 [2]): Active | Activity (3T3-L1 [3]): Active | Activity (3T3-L1 [4]): Dose-Dependent Effect | Activity (3T3-L1 [5]): Active | Activity (Syrian golden hamster [6]): Active | Activity (3T3-L1 [7]): Active | Activity (3T3-L1 [8]): Active | Activity (C3H 10T1/2 [9]): Active | inhibition (3T3-L1 [10]): Active | Activity (3T3-L1 [11]): Active | inhibition (3T3-L1 [12]): Active | inhibition (3T3-L1 [13]): Active | Activity (3T3-L1 [14]): Active | inhibition (3T3-L1 [15]): Active | Activity (3T3-L1 [16]): Non-Toxic | Activity (3T3-L1 [17]): Toxic | Activity (3T3-L1 [18]): Active | Activity (Syrian golden hamster [19]): Active | Activity (3T3-L1 [20]): Active | Activity (3T3-L1 [21]): Active | Activity (3T3-L1 [22]): Active | Activity (3T3-L1 [23]): Active | Activity (Syrian golden hamster [24]): Active | Activity (3T3-L1 [25]): Active | Activity (3T3-L1 [26]): Active | Activity (Syrian golden hamster [27]): Active | Activity (3T3-L1 [28]): Active | Activity (C3H 10T1/2 [29]): Active | Activity (3T3-L1 [30]): Active | Activity (Syrian golden hamster [31]): inactive | inhibition (3T3-L1 [32]): Active
